Test results as given in patent US6169181A, “Compounds useful to treat retroviral infections” (Pharmacia & Upjohn Company, priority 1998, dated 2001).
Several values for one entry are separate records, joined by “and”; a condition that tells them apart may be missing. Equal entries are not always repeated. Where two headings read alike, the source gives them in different places.

What was measured:
[1] = target: T1, HIV-1 protease (Human immunodeficiency virus type 1 group M subtype B, UniProt P04585); test: biochemical
Summary of the method: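 Percent inhibition came from fluorescence of FITC-tagged cleavage product, separated by filtration from uncleaved substrate captured on streptavidin-coated beads. The enzyme (10 μl of 0.1 μM) and compound acted on a biotin/FITC dual-labelled peptide for one hour at room temperature in the dark. The reaction ran in 0.1 M sodium acetate, pH 5.5, with 1.0 M NaCl and 0.05% NP-40.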

[2] = target: T2, single chain tethered (tandem) HIV protease (HIV-1 M:B_HXB2R, UniProt P04585); test: Tandem HIV protease assay; type: biochemical; conditions: read-out: FITC KI; Table II; enzyme HIV1TANDEM
T2 construct: purified enzyme, FITC/biotin substrate assay
Summary of the method: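 Covalently tethered single-chain HIV protease dimer allows very low enzyme levels for Ki measurement. N-biotinylated, C-fluorescein-labelled peptide substrate incubated with enzyme and inhibitor at pH 5.5 in the dark for 96 h; streptavidin beads stop reaction, cleaved product filtered off and residual fluorescence fitted to obtain Ki.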

[3] = target: T1, HIV-1 protease; test: biochemical; remark: listed apart in the source
Summary of the method: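 Biotinylated, FITC-labelled peptide substrate cleaved in 0.1 M sodium acetate pH 5.5, 1.0 M NaCl, 0.05% NP-40, room temperature. Filtered labelled product read by fluorescence; nonlinear least-squares fit.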

[4] = tested on: human T-cell lines, e.g., MT4 and H9, infected with HIV-1IIIB; test: Retroviral replication in infected human T-cell lines; type: cell-based; conditions: MT4 and H9 cells infected with HIV-1IIIB
Protocol: Several compounds of the present invention, such as N-[3-(1-[5,6-Dihydro-4-hydroxy-2-oxo-6-(2-phenethyl)-6-propyl-2H-pyran-3-yl]-2,2-dimethylpropyl)phenyl]-1-methyl-1H-imidazole-4-sulfonamide were tested in known human cell lines, such as human T-cell lines, e.g., MT4 and H9, which were infected with HIV-1IIIB, and certain of these compounds were further tested in peripheral blood mononuclear cells (PBMC), which were infected with HIV-1JRCSF (a clinical isolate).

[5] = target: T3, HIV-2 (Human immunodeficiency virus type 2 subtype A, UniProt P04584); test: FITC Ki, enzyme HIV-2; type: biochemical; conditions: Table II
T3 construct: tested in the HIV protease screening assay and/or tandem HIV protease assay

[6] = Table II, enzyme HIV-1, DOSE 0.123 (unit not given)
[7] = Table II, enzyme HIV-1, DOSE 0.370 (unit not given)
[8] = Table II, enzyme HIV-1, DOSE 1.100 (unit not given)
[9] = Table II, enzyme HIV-1, DOSE 3.300 (unit not given)
[10] = Table II, enzyme HIV-1, DOSE 10.000 (unit not given)
[11] = Table II, enzyme HIV-1, DOSE 30.000 (unit not given)
[12] = Table II, enzyme HIV-1, read-out: FITC KI

T3 sequence (P04584 514-612 limits assumed): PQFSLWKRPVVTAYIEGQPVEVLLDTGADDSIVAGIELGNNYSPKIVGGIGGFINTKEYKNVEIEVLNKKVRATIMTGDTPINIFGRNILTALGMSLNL

Row | Compound | PROTEASE % INHIB. [1, 6] [%] | PROTEASE % INHIB. [1, 7] [%] | PROTEASE % INHIB. [1, 8] [%] | PROTEASE % INHIB. [1, 9] [%] | PROTEASE % INHIB. [1, 10] [%] | PROTEASE % INHIB. [1, 11] [%] | Ki [2] [nM] | Ki ([3]; Table I, read-out: HIV Protease FITC Assay Ki) [nM] | inhibition of retroviral replication [4] | PROTEASE % INHIB. [1] | Ki [3, 12] [nM] | Ki [5] [nM]
1 | CCC[C@@]1(CCc2ccc(F)cc2)CC(O)=C([C@@H](c2cccc(NS(=O)(=O)c3cn(C)cn3)c2)C(C)(C)C)C(=O)O1 (single isomer, unassigned) [Example 349, N-[3-{1(R or S)-(4-Hydroxy-5,6-dihydro-2-oxo-6(R or S)-(2-(4-fluorophenyl)ethyl)-6-propyl-2H-pyran-3-yl)-2,2-dimethyl-propyl}phenyl]-1-methyl-1H-imidazole-4-sulfonamide] | 74.5 | 88.21 | 99.92 | 104.99 | 103.49 | 98.24 | 0.111 |  |  |  |  | 
2 | CC(C)(C)C(C1=C(O)CC(CCc2ccccc2)(CCc2ccccc2)OC1=O)c1cccc(NS(=O)(=O)c2ccc(N)cn2)c1 (single isomer, unassigned) [Example 356, N-[3-{1(S or R)-(4-Hydroxy-5,6-dihydro-2-oxo-6,6-bis(2-phenyl-ethyl)-2H-pyran-3-yl)-2,2-dimethylpropyl}phenyl]-5-amino-pyridine-2-sulfonamide] | 54.96 | 71.75 | 90.19 | 92.28 | 100.22 | 95.16 | 1.1 |  |  |  |  | 
3 | CCCC1(CCc2ccccc2)CC(O)=C(C(c2cccc(NS(=O)(=O)c3cn(C)cn3)c2)C(C)(C)C)C(=O)O1 (stereo not drawn) [Example 250, N-[3-(1-[5,6-Dihydro-4-hydroxy-2-oxo-6-(2-phenethyl)-6-propyl-2H-pyran-3-yl]-2,2-dimethylpropyl)phenyl]-1-methyl-1H-imidazole-4-sulfonamide] |  |  |  |  |  |  |  | 1.2 | inhibit retroviral replication |  |  | 
4 | CCCC1(CCC)CC(O)=C(C(CC)c2cccc(NS(=O)(=O)c3ccc(C(F)(F)F)cn3)c2)C(=O)O1 (stereo not drawn) [Example 280, 5-Trifluoromethyl-N-[3-[1-[4-hydroxy-2-oxo-6,6-di-n-propyl-5,6-dihydro-2H-pyran-3-yl]-propyl]-phenyl]-2-pyridinesulfonamide] | 95.28 | 94.98 | 93.01 | 86.69 | 78.64 | 76.85 | 0.1 |  |  |  |  | 
5 | CCCC1(CCc2ccccc2)CC(O)=C(C(c2cccc(NS(=O)(=O)c3ccc(N)cn3)c2)C(C)(C)C)C(=O)O1 (stereo not drawn) [Example 299, 5-Amino-N-[3-(1-[5,6-dihydro-4-hydroxy-2-oxo-6-(2-phenylethyl)-6-propyl-2H-pyran-3-yl]-2,2-dimethylpropyl)phenyl]-2-pyridinesulfonamide] |  |  |  |  |  |  | 0.2 |  |  | 83.51 and 104.76 and 117.95 and 115.61 and 128.03 and 102.89 |  | 
6 | CCC(C1=C(O)CC(CCc2ccccc2)(CCc2ccccc2)OC1=O)c1cccc(NS(=O)(=O)c2cn(C)cn2)c1 (stereo not drawn) [Example 330, N-[3-{1-(4-Hydroxy-5,6-dihydro-2-oxo-6,6-bis(2-phenylethyl)-2H-pyran-3-yl)propyl}phenyl]-1-methyl-1H-imidazole-4-sulfonamide] | 93.74 | 94.32 | 93.66 | 85.63 | 87.9 | 69.82 | 0.524 |  |  |  |  | 
7 | CCC(C1=C(O)CC(CCc2ccccc2)(CCc2ccccc2)OC1=O)c1cccc(NS(=O)(=O)c2ccc(C#N)cn2)c1 (stereo not drawn) [Example 331, N-[3-{1-(4-Hydroxy-5,6-dihydro-2-oxo-6,6-bis(2-phenylethyl)-2H-pyran-3-yl)propyl}phenyl]-5-cyanopyridine-2-sulfonamide] | 99.76 | 104.06 | 108.51 | 99.3 | 103.28 | 93.3 | 0.272 |  |  |  |  | 
8 | CCCC1(CCc2ccc(F)cc2)CC(O)=C(C(CC)c2cccc(NS(=O)(=O)c3ccc(C(N)=O)cn3)c2)C(=O)O1 (stereo not drawn) [Example 332, N-[3-{1-(4-Hydroxy-5,6-dihydro-2-oxo-6-(2-(4-fluorophenyl)ethyl)-6-propyl-2H-pyran-3-yl)propyl}phenyl]-5-carbamoylpyridine-2-sulfonamide] | 81.87 | 85.65 | 86.23 | 93.28 | 91.68 | 95.08 | 0.4 |  |  |  | 1.6 | 
9 | CCCC1(CCC)CC(O)=C(C(CC)c2cccc(NS(=O)(=O)c3ccc(C(N)=O)cn3)c2)C(=O)O1 (stereo not drawn) [Example 334, N-[3-{1-(4-Hydroxy-5,6-dihydro-2-oxo-6,6-dipropyl-2H-pyran-3-yl)propyl}phenyl]-5-carbamoylpyridine-2-sulfonamide] | 93.49 | 90.25 | 94.57 | 102.47 | 97.61 | 96.3 | 0.45 |  |  |  |  | 
10 | N#Cc1ccc(S(=O)(=O)Nc2cccc(CC3=C(O)CC(CCc4ccccc4)(CCc4ccccc4)OC3=O)c2)nc1 [Example 353, N-[3-{1-(4-Hydroxy-5,6-dihydro-2-oxo-6,6-bis(2-phenylethyl)-2H-pyran-3-yl)methyl}phenyl]-5-cyanopyridine-2-sulfonamide] | 51.83 | 68.49 | 70.71 | 63.96 | 51.8 | 43.93 | 5.3 |  |  |  | 10.4 | 
11 | CCC(C1=C(O)C2CCCCC2OC1=O)c1cccc(NS(=O)(=O)c2ccc(C#N)cn2)c1 (stereo not drawn) [Example 370] | 92.81 | 87.87 | 102.89 | 109.33 | 113.79 | 98.14 | 0.05 |  |  |  | 0.59 | 0.05
12 | CC(C)(C)C(C1=C(O)C2CCCCCCC2OC1=O)c1cccc(NS(=O)(=O)c2ccc(C#N)cn2)c1 (stereo not drawn) [Example 373, 5-Cyano-N-[3-[2,2-dimethyl-1-(4a,5,6,7,8,9,10,10a-octahydro-4-hydroxy-2-oxo-2H-cycloocta[b]pyran-3-yl)propyl]phenyl]-2-pyridinesulfonamide] | 90.71 | 90.35 | 103.83 | 88.72 | 85.75 | 89.53 | 0.2 |  |  |  |  | 
